# Article PMC3111455, “Matrix Metalloproteinase-8 Mediates the Unfavorable Systemic Impact of Local Irradiation on Pharmacokinetics of Anti-Cancer Drug 5-Fluorouracil” (PLoS ONE, 2011)
# Read-outs that look alike come from different tables or passages of the source.
# Columns and labels:
# [1] = Plasma pharmacokinetics of 5-FU in rats with or without MMP-8 inhibitor before whole pelvic irradiation 2 Gy; format: in vivo, Sprague-Dawley rats; conditions: for AUC / Cmax / MRT / clearance / half-life / Vd: Sprague-Dawley, rat, iv, 100 mg/kg, 5-FU 100 mg/kg i.v.; for Vd: read-out: Vss
# Experimental: (§1) Twenty hours after RT, the rats were administered 100 mg/kg of 5-FU in 2 mL of normal saline by intravenous infusion into the femoral vein over a 2-min period. A 150-µL blood sample was withdrawn from the jugular vein with a fraction collector according to a programmed schedule at 5, 15, 30, 45, and 60 min, and 1.5, 2, 2.5, and 3 h following drug administration. The blood samples were immediately centrifuged at 3300×g for 10 min. The resulting plasma (50 µL) was added to 1 mL of ethyl acetate in a clean tube, vortexed for 5 min, and centrifuged at 5900×g for 10 min. After centrifugation, the upper organic layer containing the ethyl acetate was transferred to a new tube and evaporated to dryness under flowing nitrogen. The dried residue was reconstituted with 50 µL of Milli-Q water (Millipore). A 20-µL aliquot of the solution was injected to the high performance liquid chromatography-ultraviolet (HPLC-UV) detection system.
# (§2) Chromatographic analysis was performed on a Model LC-20AT HPLC system (Shimadzu, Tokyo, Japan) equipped with a Model SPD-20A wavelength UV detector, SIL-20AC autosampler, and an LC Solution data processing system. A LiChroCART RP-18e column (Purospher, 250 mm, 5 µm, Merck, Darmstadt, Germany) with a LiChroCART 4-4 guard column was used for separation. The mobile phase comprised […] potassium phosphate-methanol (99∶1, v/v, pH 4.5 adjusted by 85% phosphoric acid), and the flow rate of the mobile phase was 1 ml/min. The detection wavelength was set at 266 nm. Under these conditions, the retention time of 5-FU was 5.4 min. […] Good linearity was achieved over the range of 0.01–5 µg/ml, with all coefficients of correlation greater than 0.998. All samples were freshly prepared, including the standard solutions, from the same stock solution (5 mg/mL). The 0.01-µg/mL limit of quantification was defined the lowest concentration on the calibration curve that could be measured routinely with acceptable bias and relative SD. The overall mean precision, defined by the relative SD, ranged from 0.2% to 11.0%. Analytical accuracy was expressed as the percentage difference of the mean observed values compared to known concentrations varying from −10.0% to 14.0%. The recovery results for concentrations of 0.1–10 µg/mL were 92.0%–94.0%
# MMP-8 inhibitor I (Calbiochem, La Jolla, CA) was administered to the rats to examine whether or not RT modulation of 5-FU pharmacokinetic parameters could be blocked. Briefly, MMP-8 inhibitor I was dissolved in PEG400/ethanol [4∶1 (v/v)] solution, yielding a final concentrations of 5 mg/mL. Two hours before irradiation, 10 mg/kg of MMP-8 inhibitor I was infused into the rat's tail vein over a 2-min period. After that, the rats were anesthetized with urethane 1 g/ml and α-chloralose 0.1 g/ml (1 ml/ kg by intraperitoneal injection), and were immobilized on a board to undergo computed tomography for simulation of the whole pelvic field and received irradiation, as described previously. The experimental animals were randomized to control without PEG400/ethanol [4∶1 (v/v)] solution (0 Gy), control with solvent (0 Gy), whole pelvic irradiation (2 Gy) with solvent and whole pelvic irradiation (2 Gy) with MMP-8 inhibitor and solvent groups, respectively. After RT sham RT 20 hrs, all rats received 5-FU (100 mg/kg) injections and the pharmacokinetic parameters of 5-FU were analyzed. Each group's data was collected from four rats.
# (§3) Pharmacokinetic parameters including the AUC for concentration versus time, terminal elimination phase t1/2, Cmax, MRT, total plasma clearance and Vss were calculated using the pharmacokinetics calculation software WinNonlin Standard Edition, Version 1.1 (Scientific Consulting, Apex, NC, USA) using a compartmental method.
# [2] = cited from earlier work
# [3] = set-up: method as in PMID 9188061; conditions: rats, mean ± SD, cited from earlier work
# [4] = tested on: alanine aminotransferase (ALT); assay: Evaluation of hepatic function (plasma ALT); format: in vivo; conditions: rats
# Experimental: The plasma levels of alanine aminotransferase (ALT) were measured to check the influence of different modalities for hepatic function by a standard colorimetric method using a Synchron LX20 spectrophotometer (Beckman Coulter) and manufacturer-supplied reagents.
# [5] = Plasma pharmacokinetics of 5-FU in rats after whole pelvic irradiation; format: in vivo, Sprague-Dawley rats; conditions: for AUC / Cmax / MRT / clearance / half-life / Vd: Sprague-Dawley, rat, iv, 100 mg/kg, 5-FU 100 mg/kg i.v.; for Vd: read-out: Vss
# Experimental: The rats were anesthetized with urethane 1 g/ml and α-chloralose 0.1 g/ml (1 ml/kg by intraperitoneal injection), and were immobilized on a board when undergoing computed tomography for simulation of the whole pelvic field. The cranial margin was set at the top of the bilateral iliac crests for the whole pelvic field (Fig. 7). Conventional radiotherapy was used to deliver the radiation dose via the anterior-posterior (AP) and PA portals. The experimental animals were randomized to the control, 2-Gy alone, 5-FU alone, 0.5-Gy followed by 5-FU, and 2-Gy followed by 5-FU groups. Each group's data was collected from six rats.
# as §1, §2, §3
# [6] = Bile pharmacokinetics of 5-FU in rats after whole pelvic irradiation; format: in vivo, Sprague-Dawley rats; conditions: for AUC / Cmax / MRT / clearance / half-life / Vd: Sprague-Dawley, rat, iv, 100 mg/kg, 5-FU 100 mg/kg i.v.; for Vd: read-out: Vss
# HepG2 [7] = assay: Intracellular 5-FU levels with or without recombinant MMP-8 by HPLC; format: cell-based, Human; conditions: 10 µg/mL recombinant MMP-8 plus 50 µM 5-FU vs 50 µM 5-FU alone, up to 60 min
# Experimental: as §2, with “92.0%–94.0% […]” for “92.0%–94.0%”
# HepG2 [8] = assay: Viability/toxicity of 5-FU-treated HepG2 with or without recombinant MMP-8; format: cell-based, Human; conditions: 5-FU-treated with or without recombinant MMP-8, data not shown
# [9] = MMP-8 inhibitor 10 mg/kg 2 h before 2 Gy
# [10] = plasma, controls without solvent
# [11] = plasma, whole pelvic irradiation 2 Gy with solvent
# [12] = plasma, plasma, whole pelvic irradiation 2 Gy with solvent and MMP-8 inhibitor (10 mg/kg, 2 h before irradiation)
# [13] = whole pelvic irradiation 0.5 Gy
compound,measurement,setting,value
COc1ccc(S(=O)(=O)N2Cc3ccccc3C[C@@H]2C(=O)NO)cc1 [MMP-8 inhibitor],effect on the decreased MRT of 5-FU caused by irradiation,[1]; [9],completely reversed
same,effect on the increased clearance value of 5-FU caused by irradiation,[1]; [9],completely reversed
same,effect of pretreatment on the decline in AUC of 5-FU caused by pelvic irradiation,"[1]; MMP-8 inhibitor 10 mg/kg 2 h before 2 Gy, P<0.05",significantly attenuated
same,effect of MMP-8 inhibitor alone on the AUC of 5-FU,"[1]; plasma, in comparison with the controls",Neither the MMP-8 inhibitor alone nor its vehicle had a significant effect
"O=c1[nH]cc(F)c(=O)[nH]1 [5-FU, 5-fluorouracil]",fraction catabolyzed by the liver via the dihydropyrimidine dehydrogenase (DPD) pathway,[2],About 80%
same,dose-normalized area under the curve (AUC),[3]; 10 mg/kg,0.43 ± 0.11 mg·h/L/mg
same,dose-normalized area under the curve (AUC),[3]; 50 mg/kg,0.50 ± 0.16 mg·h/L/mg
same,dose-normalized area under the curve (AUC),[3]; 100 mg/kg,1.14 ± 0.55 mg·h/L/mg
same,alanine aminotransferase (ALT) levels vs control group,[4]; 0.5 Gy followed by 5-FU,no significant difference
same,alanine aminotransferase (ALT) levels vs control group,[4]; 2 Gy followed by 5-FU,no significant difference
same,alanine aminotransferase (ALT) levels vs control group,[4]; 5-FU-treated only,no significant difference
same,AUC,"[1]; plasma, controls with solvent",71400 ng·h/mL
same,Cmax,"[1]; plasma, controls with solvent",146 ± 35 µg/mL
same,MRT,"[1]; plasma, controls with solvent",36 min
same,clearance,"[1]; plasma, controls with solvent",23.4 ± 0.8 mL/min/kg
same,half-life,"[1]; plasma, controls with solvent",27.8 ± 3 min
same,AUC,[1]; [10],71400 ng·h/mL
same,Cmax,[1]; [10],151 ± 17 µg/mL
same,MRT,[1]; [10],37 min
same,clearance,[1]; [10],23.4 ± 1.1 mL/min/kg
same,half-life,[1]; [10],33.3 ± 16.1 min
same,AUC,[1]; [11],55100 ng·h/mL
same,Cmax,[1]; [11],132 ± 51 µg/mL
same,MRT,[1]; [11],26 min
same,clearance,[1]; [11],30.3 ± 0.3 mL/min/kg
same,half-life,[1]; [11],31 ± 8.8 min
same,Vd,"[1]; plasma, plasma, controls with solvent",0.836 ± 0.097 L/kg
same,Vd,"[1]; plasma, plasma, controls without solvent",0.859 ± 0.022 L/kg
same,AUC,[1]; [12],66000 ng·h/mL
same,Cmax,[1]; [12],122 ± 29 µg/mL
same,MRT,[1]; [12],36 min
same,clearance,[1]; [12],25.4 ± 2.8 mL/min/kg
same,half-life,[1]; [12],32.3 ± 9.9 min
same,Vd,[1]; [12],0.911 ± 0.127 L/kg
same,Vd,"[1]; plasma, plasma, whole pelvic irradiation 2 Gy with solvent",0.784 ± 0.11 L/kg
same,reduction of the AUC of 5-FU by pelvic irradiation,"[5]; 0.5 Gy vs non-irradiated controls, P = 0.019",17.6%
same,reduction of the AUC of 5-FU by pelvic irradiation,"[5]; 2 Gy vs non-irradiated controls, P = 0.008",21.5%
same,AUC,[5]; controls 0 Gy,78800 ng·h/mL
same,Cmax,[5]; controls 0 Gy,164 ± 36 µg/mL
same,MRT,[5]; controls 0 Gy,36.5 min
same,clearance,[5]; controls 0 Gy,21.3 ± 1.9 mL/min/kg
same,half-life,[5]; controls 0 Gy,34.7 ± 9.6 min
same,Vd,[5]; controls 0 Gy,0.778 ± 0.088 L/kg
same,AUC,[5]; [13],64900 ng·h/mL
same,Cmax,[5]; [13],167 ± 23 µg/mL
same,MRT,[5]; [13],30.9 min
same,clearance,[5]; [13],25.8 ± 2 mL/min/kg
same,half-life,[5]; [13],24.7 ± 3.5 min
same,Vd,[5]; [13],0.775 ± 0.116 L/kg
same,AUC,[5]; whole pelvic irradiation 2 Gy,61900 ng·h/mL
same,Cmax,[5]; whole pelvic irradiation 2 Gy,179 ± 19 µg/mL
same,MRT,[5]; whole pelvic irradiation 2 Gy,25 min
same,clearance,[5]; whole pelvic irradiation 2 Gy,27.3 ± 3.6 mL/min/kg
same,half-life,[5]; whole pelvic irradiation 2 Gy,29.9 ± 7.1 min
same,Vd,[5]; whole pelvic irradiation 2 Gy,0.67 ± 0.06 L/kg
same,increase of the AUC of 5-FU in bile by pelvic irradiation,[6]; 0.5 Gy vs non-irradiated controls,25.1%
same,increase of the AUC of 5-FU in bile by pelvic irradiation,[6]; 2 Gy vs non-irradiated controls,30.6%
same,AUC,[6]; controls 0 Gy,19700 ng·h/mL
same,Cmax,[6]; controls 0 Gy,129 ± 22 µg/mL
same,MRT,[6]; controls 0 Gy,8.9 min
same,clearance,[6]; controls 0 Gy,84.8 ± 3.6 mL/min/kg
same,half-life,[6]; controls 0 Gy,9.2 ± 0.4 min
same,Vd,[6]; controls 0 Gy,0.754 ± 0.102 L/kg
same,AUC,[6]; [13],24600 ng·h/mL
same,Cmax,[6]; [13],120 ± 14 µg/mL
same,MRT,[6]; [13],11.1 min
same,clearance,[6]; [13],67.9 ± 3.6 mL/min/kg
same,half-life,[6]; [13],10.3 ± 0.5 min
same,Vd,[6]; [13],0.753 ± 0.025 L/kg
same,AUC,[6]; whole pelvic irradiation 2 Gy,25700 ng·h/mL
same,Cmax,[6]; whole pelvic irradiation 2 Gy,93 ± 6 µg/mL
same,MRT,[6]; whole pelvic irradiation 2 Gy,13.9 min
same,clearance,[6]; whole pelvic irradiation 2 Gy,65.1 ± 4.3 mL/min/kg
same,half-life,[6]; whole pelvic irradiation 2 Gy,12.9 ± 2.8 min
same,Vd,[6]; whole pelvic irradiation 2 Gy,0.903 ± 0.055 L/kg
"recombinant MMP-8: recombinant matrix metalloproteinase-8, 10 µg/mL added to HepG2 cells",effect on the AUC of intracellular 5-FU,HepG2 [7],no significant effect
same,toxicity to HepG2,HepG2 [8],no significant toxicity
